In patent US20260183297A1, “SELECTION OF PATIENTS FOR THE TREATMENT OF FADS1-MEDIATED DISEASES OR DISORDERS USING FADS-1 INHIBITORS” (AMGEN INC., priority 2022, published 2026):
Where two headings read alike, the source gives them in different places.

Columns and labels:
[1] = HFD-fed DIO C57BL/6J mice; cited from earlier work
[2] = C57BL/6 DIO mice; cited from earlier work
FADS1 [3] = molecular target: T1, FADS1 (Mus musculus, UniProt Q920L1); test: In vivo FADS1 activity measurement using the liver (13C5-DGLA to 13C5-AA conversion); settings: DIO mice, single oral dose 30 mg/kg, 24 hours after dosing; for inhibition at 30 mg/kg: mouse, read-out: Liver Avg % Inhibition
T1 construct: Liver from ^13C5-DGLA dosed DIO mice was collected for pharmacodynamic (PD) analysis; from tissue; host or cells: living DIO C57Bl/6 mice; 13C5-DGLA to 13C5-AA conversion read in liver (A4) or blood plasma (A5)
T1 sequence (Q920L1 1-447): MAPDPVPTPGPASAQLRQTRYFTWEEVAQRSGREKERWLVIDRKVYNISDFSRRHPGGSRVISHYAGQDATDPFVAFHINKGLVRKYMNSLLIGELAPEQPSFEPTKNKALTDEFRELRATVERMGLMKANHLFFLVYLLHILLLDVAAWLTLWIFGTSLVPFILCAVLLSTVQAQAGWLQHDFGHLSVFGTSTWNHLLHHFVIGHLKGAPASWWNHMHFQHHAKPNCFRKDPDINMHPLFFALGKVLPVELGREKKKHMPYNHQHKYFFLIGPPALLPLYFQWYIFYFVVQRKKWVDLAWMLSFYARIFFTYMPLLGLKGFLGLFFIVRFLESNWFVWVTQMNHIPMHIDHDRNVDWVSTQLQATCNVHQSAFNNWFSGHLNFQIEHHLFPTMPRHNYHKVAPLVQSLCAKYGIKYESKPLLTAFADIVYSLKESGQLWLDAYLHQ
Procedure: Mice were then dosed by intraperitoneal injection with a solution comprising of a mixture of 0.1 ml solution of ^13C5-DGLA (2 mM in 18.42 mM Na2CO3 buffer). Necropsy were performed at 30 minutes post ^13C5-DGLA dosing. Liver from ^13C5-DGLA dosed DIO mice was collected for pharmacodynamic (PD) analysis and EDTA plasma was collected for compound exposure determination. For PD analysis, 150 mg of frozen liver tissue were premixed with ALA-D14 as an internal standard. Liver samples were homogenized and extracted twice with chloroform/methanol (2:1) solution. The organic phases for the two extractions were pooled and evaporated to dryness under nitrogen gas. The liver extract was resuspended in 200 μl 2N NaOH and saponified at 65° C. for 1 hour. After cooling to room temperature, 100 μl of formic acid was added and the mixture was subjected to two consecutive extractions with a chloroform:methanol (2:1) solution. The pooled organic phases were evaporated to dryness under nitrogen gas and resuspended in a solution containing acetonitrile and methanol at a ratio of 1:1. The extracts were then analyzed by LC/MS/MS for the following analytes: ^13C5-DGLA, ^13C5-AA, with ALA-d14 as the internal standard. The sample (20 μl) was injected onto a Poroshell 120 EC-C18 3.0×50 mm, 1.9 μm id column (Agilent, Santa Clara, CA). The analyte peak areas were quantified using the Analyst software (SCIEX, Framingham, […]). The residual in vivo FADS1 activity was calculated by taking the percent of substrate to product conversion normalized to the vehicle group to determine the percent of control (POC) and the percent inhibition relative to control (vehicle).
To determine the degree of FADS1 inhibition, the in vivo FADS1 activity as the percent of conversion calculated using the following equation: […]
The data were then normalized to the vehicle group to determine the percent of inhibition relative to control (vehicle) by the following equation: […]
To calculate the in vivo potency, dose response graphs were generated by plotting the plasma concentration of the test compound determined from the PK analysis on the abscissa, against the percent of control (POC, relative to vehicle) of the FADS1 activity for each mouse. The data points were then fitted by using the log(inhibitor) vs response nonlinear regression algorithm using GraphPad Prism (version 8.4.3, San Diego CA) to calculate the in vivo IC50 (total).
Free (unbound) IC50 and IC90 values were calculated by first calculating the unbound compound concentration in the plasma by multiplying the plasma concentration of test compound with the fraction unbound (fu) value in mouse plasma determined in the plasma protein binding study. A dose response curve was used to determine the unbound IC50 and IC90 by plotting the unbound plasma concentration of the compound on the abscissa, against the percent of control (POC, relative to vehicle) of FADS1 activity for each mouse. The data points were then fitted with a log (inhibitor) versus response nonlinear regression algorithm using GraphPad Prism (version 8.4.3, San Diego, CA) to calculate the in vivo IC50 (Free).

FADS1 [4] = molecular target: T1, FADS1; test: In vivo FADS1 activity measurement using blood plasma (13C5-DGLA to 13C5-AA conversion); settings: for Plasma Avg % Conversion / inhibition at 30 mg/kg: DIO mice, single oral dose 30 mg/kg, 24 hours after dosing
Procedure: FADS1 activity in the presence of Compounds B-E was also measured using blood plasma (in addition to using the liver). The above procedures were perforned to measure the in vivo activity of FADS1 using the liver. The following general procedures were used to measure FADS1 activity using blood plasma. Diet-induced obese (DIO) mice that were on 12 weeks of high fat diet were used to determine the pharmacokinetic (PK) and pharmacodynamic (PD) properties of test compounds. To determine the target coverage at 24 hours after dosing with a test compound (e.g., Compounds B-E, shown below), mice were IP dosed with 0.1 ml solution of ^13C5-DGLA (2 mM in 18.42 mM Na2CO3 buffer). Necropsy were performed at 30 minutes post ^13C5-DGLA dosing. EDTA Plasma was collected for PK and PD analysis.
For PD analysis, 50 μl of plasma or standards (pooled untreated mouse plasma with ^13C5-DGLA and ^13C5-AA added at concentration of 4.57 nM to 10 uM) were mixed with 10 μl of 90% methanol and 10 μl of 50 μg/mL of ALA-D14 as an internal standard (100 μM alpha-linolenic acid-d14 (ALA-d14, Cayman Chemical)) in a 96 well plate. 490 μl of chloroform:methanol (2:1) were added to each well. Plates were plated on a shaker for 5 min prior to adding 66.5 μl water. The plates were shaken for another 5 minutes, followed by centrifugation at 2000 RPM for 5 minutes. The bottom organic layer was transferred to a clean 96 well plate. 333 ul of chloroform:methanol (2:1) were added to the to the remaining liquid phase in the original plate. After 5 min of shaking, the plate was centrifuged at 2000 RPM for 5 minutes. The bottom layer was collected and combined with the first bottom layer. The combined layers were evaporated to dryness under a constant stream of nitrogen gas. After the plate has been dried, 100 μl of 2N NaOH was added to the mixture for subsequent saponification at 65° C. for 1 hour. The samples were then cooled to room temperature and the mixture was then acidified with 50 μl of formic acid followed by two consecutive chloroform:methanol (2:1) extractions. 500 μl of Chloroform:methanol (2:1) was added and the mixture thoroughly mixed by shaking. The plate was then centrifuged at 2,000 rpm for 5 min. The bottom chloroform phase was transferred to a new 2 mL 96 well plate and the remaining aqueous layer was extracted with another 250 μl of chloroform:methanol (2:1). The organic extracts were combined, and the solvent was evaporated to dryness by placing the plate under nitrogen. Extracts were then dissolved in 200 μl of acetonitrile/methanol (1:1). The plate was placed on a shaker for 30 minutes to ensure thorough mixing and dissolution of the extracted fatty acids. The plate was then centrifuged at 2000 RPM for 5 minutes. 80 μl of the samples were transferred to a new 96 well polypropylene plate for analysis on a LC-MS/MS for the following analytes: ^13C5-DGLA, ^13C5-AA, with ALA-d14 as the internal standard. Briefly describing the LC-MS/MS method: 20 μl of sample was injected onto a Poroshell 120 EC-C18 3.0×50 mm, 1.9 μm id column. Mobile phases were 80% acetonitrile containing 5 mM ammonium acetate for mobile phase A and 99.5% acetonitrile containing 5 mM ammonium acetate for mobile phase B. The LC gradient was a 3 min long method at a flow rate of 0.4 mL/minute consisting of 45% B at 0 to 0.5 min, followed by a 45% B to 100% B from 0.5 to 2.0 min; the system was then maintained at 100% B from 2.0 min to 2.5 min and returned to 45% B at 2.6 min and maintained until end of the method. The analyte peak areas were quantified by using the SCIEX Analyst software. To determine the degree of FADS1 inhibition, the in vivo FADS1 activity, POC, percent of inhibition, and in vivo IC50 values are calculated as described above for liver FADS1 activity measurement.

Row | Compound | Liver Avg % Conversion (FADS1 [3]) [%] | inhibition at 30 mg/kg (FADS1 [3]) [%] | Plasma Avg % Conversion (FADS1 [4]) [%] | inhibition at 30 mg/kg (FADS1 [4]; mouse) [%] | other results
1 | COc1ccc2c(c1)c(CC(=O)O)c(C)n2C(=O)c1ccc(Cl)cc1 [indomethacin] | – | – | – | – | body weight [1]: reduce body weight; insulin sensitivity [1]: improve insulin sensitivity
2 | Cc1c(C(=O)NN2CCCCC2)nn(-c2ccc(Cl)cc2Cl)c1-c1ccc(Cl)cc1 [rimonabant] | – | – | – | – | adipose tissue inflammation [2]: reduced adipose tissue inflammation; body weight [2]: reduce body weight; physical activity [2]: increased physical activity only in the light cycle
3 | O=c1c(-c2ccc(OCC(F)(F)F)cc2)c(C(F)(F)F)nc2cc(CO)ccn12 [Compound D] | 34.5 | 58.7 | 25.1 | 58.3 | –
4 | O=c1c(-c2cnn(CC(F)(F)C(F)(F)F)c2)c(C(F)(F)F)nc2cc(OCF)ccn12 [Compound F] | – | – | – | – | Free (unbound) in vivo IC95 (FADS1 [4]; blood plasma, unbound plasma concentration): 0.0164 µM; IC50 (FADS1 [4]; blood plasma, unbound plasma concentration, read-out: Free (unbound) in vivo IC50): 5.62 nM; IC90 (FADS1 [4]; mouse, blood plasma, unbound plasma concentration, read-out: Free (unbound) in vivo IC90): 12.4 nM
5 | COc1ccn2c(=O)c(-c3ccc(O[C@H](C)C#N)cc3)c(C(F)(F)F)nc2n1 [Compound E] | 78.7 | 5.8 | 58.1 | 3.7 | –
